Assay: Liposome alanine efflux coupled with enzymatic assays
Conditions: alanine efflux after one hour of exposure; alanine-loaded DPPC/cholesterol (3:1) liposomes; carrier added in DMSO; control with no carrier 0.7
Procedure: Two sets of tests were undertaken to determine the viability of such aminophosphonate compounds as drug carriers in liposome-based delivery systems. The first evaluated liposome efflux coupled with enzymatic assays. In such an experiment, unilamellar liposomes loaded with 300 mM of alanine (an amino acid) were prepared from dipalmitoyl phosphatidyl choline (DPPC) and cholesterol (3:1 molar ratio) (in accordance with Torchilin, V. et al., Liposomes 2003, Second Edition, Oxford Press). Several samples of alanine-loaded liposomes were then loaded further with identical amounts of the different aminophosphonate carriers from above (with DMSO as a solvent) thereby producing different samples with different carriers but with same concentrations. The liposomes were then measured for alanine efflux after one hour of exposure as the conversion of alanine to pyruvate, catalyzed by Glutamic-Pyruvic Transmaminase enzyme, and further to lactate, catalyzed by the enzyme Lactate Dehydrogenase, accompanied by the oxidation of nicotinamide cofactor NADH to NAD^+ (as monitored by UV spectroscopy). The results are tabulated below (with a control of no carrier): […]

## CCCCC(CC)COP(=O)(OCC(CC)CCCC)C(C)(C)NCc1ccccc1 (stereo not shown) [Example 3]
  Alanine Flux: 4.3 nmol/h × m^2

## CCCCOP(=O)(OCCCC)C1(Nc2ccccc2)CCCCC1 [Example 7]
  Alanine Flux: 4.4 nmol/h × m^2

## COP(=O)(OC)C(C)(C)Nc1ccccc1 [Example 6]
  Alanine Flux: 7.8 nmol/h × m^2

## COP(=O)(OC)C1(NCc2ccccc2)CCCCC1 [Example 4]
  Alanine Flux: 7.2 nmol/h × m^2

## CCCCOP(=O)(OCCCC)C1(NCc2ccccc2)CCCCC1 [Example 5]
  Alanine Flux: 4.4 nmol/h × m^2

## COP(=O)(OC)C(C)(C)NCc1ccccc1 [Example 1]
  Alanine Flux: 4.4 nmol/h × m^2

## CCCCOP(=O)(OCCCC)C(C)(C)NCc1ccccc1 [Example 2]
  Alanine Flux: 3.1 nmol/h × m^2
